# Measurements as given in patent US20230174484A1, “ANTAGONISTS OF GPR39 PROTEIN” (Oregon Health & Science University, priority 2020, published 2023).
# pKi: −log10 of the molar value. Counter-ions that a name gives are not always drawn.
# Molecular target: T1, human GPR39 receptor (Homo sapiens, UniProt O43194)
# T1 construct: PC3 Cells, Expressing the Endogenous Human GPR39 Receptor; endogenous in cells; host or cells: PC3 (human prostate adenocarcinoma) cells
# T1 sequence (O43194 1-453): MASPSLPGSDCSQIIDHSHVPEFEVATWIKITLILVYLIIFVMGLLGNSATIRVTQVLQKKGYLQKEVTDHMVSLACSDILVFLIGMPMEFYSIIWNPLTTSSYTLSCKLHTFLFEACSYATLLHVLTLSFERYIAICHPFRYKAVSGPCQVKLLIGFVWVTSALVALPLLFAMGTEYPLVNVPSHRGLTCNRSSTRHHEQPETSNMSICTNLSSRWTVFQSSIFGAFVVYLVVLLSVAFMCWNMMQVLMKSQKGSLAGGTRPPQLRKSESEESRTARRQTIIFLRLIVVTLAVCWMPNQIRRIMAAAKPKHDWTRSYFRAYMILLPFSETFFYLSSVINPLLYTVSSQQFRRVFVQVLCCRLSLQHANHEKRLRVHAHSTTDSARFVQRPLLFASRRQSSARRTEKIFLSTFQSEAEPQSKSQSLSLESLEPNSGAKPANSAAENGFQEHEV
# Test: Measurement of intracellular calcium response in PC3 cells (FLIPR), antagonism of the C3 agonist response
# Assay type: cell-based
# Conditions: functional pKi (modified Cheng-Prusoff), inhibition of the C3 (TC-G 1008) response at EC90, 30 μM ZnCl2, read-out: fpKi activity
# Summary of the method: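 PC3 cells with endogenous human GPR39 were loaded with Calcium-6 and read by FLIPR, with compounds tested in buffer with 30 μM final ZnCl2 and 0.32% DMSO. Peak Ca2+ signal was scored as % inhibition of the EC90 C3 response, fitted by four-parameter logistic. Functional pKi was derived via the modified Cheng-Prusoff equation.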
row,SMILES,pKi
1,"CN1CCN(C(=O)c2ccc(NC(=O)C3CC3)cc2N2CCCCCC2)C(c2cccs2)C1 (single isomer, unassigned) [Example 69a, N-(3-(azepan-1-yl)-4-(4-methyl-2-(thiophen-2-yl)piperazine-1-carbonyl)phenyl) cyclopropane carboxamide]",5.20 to 5.90
2,"CN1CCN(C(=O)c2ccc(NC(=O)C3CC3)cc2N2CCCCCC2)C(c2ccsc2)C1 (single isomer, unassigned) [Example 70a, N-(3-(azepan-1-yl)-4-(4-methyl-2-(thiophen-3-yl)piperazine-1-carbonyl)phenyl)cyclopropane carboxamide]",5.20 to 5.90
3,"CCCN1CCN(C(=O)c2ccc(NC(=O)C3CC3)cc2N2CCCCCC2)C(c2ccccc2)C1 (single isomer, unassigned) [Example 73b, N-[3-(azepan-1-yl)-4-(2-phenyl-4-propylpiperazine-1-carbonyl)phenyl]Cyclopropanecarboxamide]",5.20 to 5.90
4,"CN1CCN(C(=O)c2ccc(NC(=O)C3CC3)cc2N2CCCC2)C(c2ccccc2F)C1 (single isomer, unassigned) [Example 84b, N-[4-[2-(2-fluorophenyl)-4-methylpiperazine-1-carbonyl]-3-pyrrolidin-1-ylphenyl]cyclopropanecarboxamide]",5.20 to 5.90
5,"CN1CCN(C(=O)c2ccc(NC(=O)C3CC3)cc2N2CCCC2)C(c2cccs2)C1 (single isomer, unassigned) [Example 86a, N-[4-(4-methyl-2-thiophen-2-ylpiperazine-1-carbonyl)-3-pyrrolidin-1-ylphenyl]cyclopropanecarboxamide]",5.20 to 5.90
6,"CN1CCN(C(=O)c2ccc(NC(=O)C3CC3)cc2N2CCCC2)C(c2cccc(F)c2)C1 (single isomer, unassigned) [Example 88b, N-[4-[2-(3-fluorophenyl)-4-methylpiperazine-1-carbonyl]-3-pyrrolidin-1-ylphenyl]cyclopropanecarboxamide]",5.20 to 5.90
7,"CN1CCN(C(=O)c2ccc(NC(=O)C3CC3)nc2N2CCCC2)C(c2ccccc2)C1 (single isomer, unassigned) [Example 149b, (2R or 2S) N-[5-(4-methyl-2-phenylpiperazine-1-carbonyl)-6-pyrrolidin-1-ylpyridin-2-yl] cyclopropanecarboxamide]",5.20 to 5.90
8,"Cc1nnc(-c2ccc(C(=O)N3CCN(C)CC3c3ccccc3)c(N3CCCC3)c2)[nH]1 (single isomer, unassigned) [Example 150b, (2R or 2S) (4-methyl-2-phenylpiperazin-1-yl)-[4-(5-methyl-4H-1,2,4-triazol-3-yl)-2-pyrrolidin-1-ylphenyl]methanone]",5.20 to 5.90
9,"CN1CCN(C(=O)c2ccc(-c3nnc(C4CC4)[nH]3)cc2N2CCCC2)C(c2ccccc2)C1 (single isomer, unassigned) [Example 151b, (2R or 2S) [4-(5-cyclopropyl-4H-1,2,4-triazol-3-yl)-2-pyrrolidin-1-ylphenyl]-(4-methyl-2-phenylpiperazin-1-yl)methanone]",5.20 to 5.90
10,"Cc1ccn(-c2cc(NC(=O)C3CC3)ccc2C(=O)N2CCN(C)CC2c2ccccc2)n1 (single isomer, unassigned) [Example 155a, (2R or 2S) N-[4-(4-methyl-2-phenylpiperazine-1-carbonyl)-3-(3-methylpyrazol-1-yl)phenyl] cyclopropanecarboxamide]",6.00 to 6.50
11,"CN1CCN(C(=O)c2ccc(NC(=O)C3CC3)cc2N2CCCC2)C(c2ccccc2Cl)C1 (single isomer, unassigned) [Example 170b, (2R or 2S) N-[4-[2-(2-chlorophenyl)-4-methylpiperazine-1-carbonyl]-3-pyrrolidin-1-ylphenyl]cyclopropanecarboxamide]",6.00 to 6.50

# Now those with a higher pKi, led by results:
row,pKi,SMILES
1,6.60 to 7.20,"CC1CC(C)CN(c2cc(NC(=O)C3CC3)ccc2C(=O)N2CCN(C)CC2c2ccccc2)C1 (single isomer, unassigned) [Example 68e, Anti N-[3-[3,5-dimethylpiperidin-1-yl]-4-(4-methyl-2-phenylpiperazine-1-carbonyl)phenyl]cyclopropanecarboxamide]"
2,≥ 7.30,"CC1CC(C)CN(c2cc(NC(=O)C3CC3)ccc2C(=O)N2CCN(C)CC2c2ccccc2)C1 (single isomer, unassigned) [Example 68f, Syn 2R or 2S N-[3-[3,5-dimethylpiperidin-1-yl]-4-(4-methyl-2-phenylpiperazine-1-carbonyl)phenyl]cyclopropanecarboxamide hydrochloride]"
3,≥ 7.30,"CN1CCN(C(=O)c2ccc(NC(=O)C3CC3)cc2N2CCCCCC2)C(c2cccs2)C1 (single isomer, unassigned) [Example 69b, N-(3-(azepan-1-yl)-4-(4-methyl-2-(thiophen-2-yl)piperazine-1-carbonyl)phenyl) cyclopropane carboxamide]"
4,≥ 7.30,"CN1CCN(C(=O)c2ccc(NC(=O)C3CC3)cc2N2CCCCCC2)C(c2ccsc2)C1 (single isomer, unassigned) [Example 70b, N-(3-(azepan-1-yl)-4-(4-methyl-2-(thiophen-3-yl)piperazine-1-carbonyl)phenyl)cyclopropane carboxamide]"
5,≥ 7.30,"CCCN1CCN(C(=O)c2ccc(NC(=O)C3CC3)cc2N2CCCCCC2)C(c2ccccc2)C1 (single isomer, unassigned) [Example 73a, N-[3-(azepan-1-yl)-4-(2-phenyl-4-propylpiperazine-1-carbonyl)phenyl]Cyclopropanecarboxamide]"
6,6.60 to 7.20,"CN1CCN(C(=O)c2ccc(NC(=O)C3CC3)cc2N2CCCC2)C(c2ccccc2F)C1 (single isomer, unassigned) [Example 84a, N-[4-[2-(2-fluorophenyl)-4-methylpiperazine-1-carbonyl]-3-pyrrolidin-1-ylphenyl]cyclopropanecarboxamide]"
7,≥ 7.30,"CN1CCN(C(=O)c2ccc(NC(=O)C3CC3)cc2N2CCCC2)C(c2cccs2)C1 (single isomer, unassigned) [Example 86b, N-[4-(4-methyl-2-thiophen-2-ylpiperazine-1-carbonyl)-3-pyrrolidin-1-ylphenyl]cyclopropanecarboxamide]"
8,6.60 to 7.20,"CN1CCN(C(=O)c2ccc(NC(=O)C3CC3)cc2N2CCCC2)C(c2cccc(F)c2)C1 (single isomer, unassigned) [Example 88a, N-[4-[2-(3-fluorophenyl)-4-methylpiperazine-1-carbonyl]-3-pyrrolidin-1-ylphenyl]cyclopropanecarboxamide]"
9,6.60 to 7.20,"CN1CCN(C(=O)c2ccc(NC(=O)C3CC3)nc2N2CCC(F)(F)C2)C(c2ccccc2)C1 (single isomer, unassigned) [Example 148a, (2R or 2S) N-[6-(3,3-difluoropyrrolidin-1-yl)-5-(4-methyl-2-phenylpiperazine-1-carbonyl)pyridin-2-yl]cyclopropanecarboxamide]"
10,6.60 to 7.20,"CN1CCN(C(=O)c2ccc(NC(=O)C3CC3)nc2N2CCCC2)C(c2ccccc2)C1 (single isomer, unassigned) [Example 149a, (2R or 2S) N-[5-(4-methyl-2-phenylpiperazine-1-carbonyl)-6-pyrrolidin-1-ylpyridin-2-yl] cyclopropanecarboxamide]"
11,6.60 to 7.20,"Cc1nnc(-c2ccc(C(=O)N3CCN(C)CC3c3ccccc3)c(N3CCCC3)c2)[nH]1 (single isomer, unassigned) [Example 150a, (2R or 2S) (4-methyl-2-phenylpiperazin-1-yl)-[4-(5-methyl-4H-1,2,4-triazol-3-yl)-2-pyrrolidin-1-ylphenyl]methanone]"
12,6.60 to 7.20,"CN1CCN(C(=O)c2ccc(-c3nnc(C4CC4)[nH]3)cc2N2CCCC2)C(c2ccccc2)C1 (single isomer, unassigned) [Example 151a, (2R or 2S) [4-(5-cyclopropyl-4H-1,2,4-triazol-3-yl)-2-pyrrolidin-1-ylphenyl]-(4-methyl-2-phenylpiperazin-1-yl)methanone]"
13,≥ 7.30,"CN1CCN(C(=O)c2ccc(NC(=O)C3CC3)cc2N2CCCC2)C(c2ccccc2Cl)C1 (single isomer, unassigned) [Example 170a, (2R or 2S) N-[4-[2-(2-chlorophenyl)-4-methylpiperazine-1-carbonyl]-3-pyrrolidin-1-ylphenyl] cyclopropanecarboxamide]"
14,≥ 7.30,"CN1CCN(C(=O)c2ccc(NC(=O)C3CC3)cc2N2CCCC2)C(c2cccc(Cl)c2)C1 (single isomer, unassigned) [Example 171b, (2R or 2S) N-[4-[2-(3-chlorophenyl)-4-methylpiperazine-1-carbonyl]-3-pyrrolidin-1-ylphenyl] cyclopropanecarboxamide]"
15,6.60 to 7.20,"Cc1nnc(-c2ccc(C(=O)N3CCN(C)CC3c3ccccc3)c(N3CCC(C(F)(F)F)C3)c2)[nH]1 (single isomer, unassigned) [Example 177a, (2S, 3R) or (2R, 3S) or (2R, 3R) or (2S, 3S) (4-methyl-2-phenylpiperazin-1-yl)-[4-(5-methyl-4H-1,2,4-triazol-3-yl)-2-[3-(trifluoromethyl)pyrrolidin-1-yl]phenyl]methanone]"
